Consider two compounds from article PMC6817905, “Inhibition of translation termination by small molecules targeting ribosomal release factors” (Scientific Reports, 2019).

Experiment [1] addresses PTC of the ribosome. The arrangement: method as in PMID 23824292. The following applies: read-out: Apparent Ki, peptide release; cited from earlier work.
The target in experiment [2] is PTC of the ribosome. The arrangement: method as in PMID 23824292. The following applies: fold higher Ki than for termination; cited from earlier work.
Experiment [3] deals with Escherichia coli strain MG1655. The experiment in a line: MIC on bacterial growth, wt E. coli (broth micro-dilution). It counts as cell-based. Particulars: 500 mg l^−1 highest concentration tested. How it is done: The four different strains analyzed were wild type (wt) Staphylococcus aureus (strain ATCC 29213), wt Escherichia coli (strain MG1655, K12), a drug-hypersensitive E. coli lpxC mutant D22 (strain MG1655) and an efflux-defective E. coli ΔtolC mutant (strain MG1655). These were grown in cation-adjusted Mueller Hinton II media (MH II, Nordic Biolabs), the standard medium for antibiotic susceptibility testing. For overnight cell cultures one colony from a MH II (Nordic Biolabs) plate was inoculated in 1 ml MH II media in a 10 ml tube and the bacteria was incubated at 37 °C shaking at 190 rpm. Cells from the overnight culture was used for MIC determinations and time-kill experiments.
The minimal inhibitory concentrations (MIC) of the drugs were measured in 96-well round-bottom microtiter plates using cation-adjusted Mueller-Hinton II (MH II) media. All measurements were done with at least three biological replicates. Briefly, bacterial colonies from a non-selective agar plate were re-suspended in 0.9% NaCl to 0.5 McFarland ( ≅1.5×10^8 cfu/ml). The cell suspension was further diluted to ≅5×10^5 cfu/ml (50 µl of bacterial suspension to 10 ml of MHII) and then 90 µl of cell suspension ( ≅5×10^5 […]) was added to each well. […] The MIC value was determined visually as the lowest concentration of drug that inhibited growth.
(In general: Broth dilution looks for growth in wells or tubes with falling amounts of substance.)

Experiment [4] concerns Staphylococcus aureus strain ATCC29213. The experiment in a line: MIC on bacterial growth, wt S. aureus (broth micro-dilution). The format is cell-based.
Method: The minimal inhibitory concentrations (MIC) of the drugs were measured in 96-well round-bottom microtiter plates using cation-adjusted Mueller-Hinton II (MH II) media. All measurements were done with at least three biological replicates. Briefly, bacterial colonies from a non-selective agar plate were re-suspended in 0.9% NaCl to 0.5 McFarland ( ≅1.5×10^8 cfu/ml). The cell suspension was further diluted to ≅5×10^5 cfu/ml (50 µl of bacterial suspension to 10 ml of MHII) and then 90 µl of cell suspension ( ≅5×10^5 cfu/l) was added to each well. […] The MIC value was determined visually as the lowest concentration of drug that inhibited growth.

On to `CN(CC[C@H](N)CC(=O)N[C@H]1C=C[C@H](n2ccc(N)nc2=O)O[C@@H]1C(=O)O)C(=N)N` [Blasticidin S], for which the Ki at PTC of the ribosome [1] was approximately 30 nM. The “Ki for peptide bond formation relative to termination reaction” value on PTC of the ribosome [2] is on record as 6 fold.

As to kirromycin, the “MIC E. coli K12 wt” value in experiment [3] was found to be 50 mg/L. The “MIC S. aureus wt” value in experiment [4] worked out at 100 mg/L.
